“Also recorded” adds a separate entry of the source. Where two headings read alike, the source gives them in different places. Blank lines part the entries; values can stand above or below the molecule they belong to.
What was measured:
rhodopsin [1] = molecular target: T1, rhodopsin (Bos taurus, UniProt P02699); assay: Single-molecule force spectroscopy (AFM) unfolding of rhodopsin in native ROS disc membranes: unfolding forces and pathways; parameters: ROS were purified from fresh bovine retinas as described [33]; from tissue; host or cells: bovine retina, rod outer segment (ROS) disc membranes; species or system bovine
Target sequence in this assay (P02699 whole entry): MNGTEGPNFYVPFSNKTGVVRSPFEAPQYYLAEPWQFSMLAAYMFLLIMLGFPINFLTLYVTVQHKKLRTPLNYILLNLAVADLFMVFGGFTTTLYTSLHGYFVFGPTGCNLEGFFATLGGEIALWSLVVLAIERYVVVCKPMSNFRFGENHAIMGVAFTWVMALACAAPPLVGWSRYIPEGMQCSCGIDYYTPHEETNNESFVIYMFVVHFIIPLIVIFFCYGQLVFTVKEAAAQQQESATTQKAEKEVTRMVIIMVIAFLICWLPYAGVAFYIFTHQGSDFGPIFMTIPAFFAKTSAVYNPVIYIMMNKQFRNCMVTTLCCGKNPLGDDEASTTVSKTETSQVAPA

[2] = molecular target: T2, rhodopsin Cys110-Cys187 disulfide bond (Bos taurus, UniProt P02699); assay: SMFS of rhodopsin: ratio of 65 nm (intact Cys110-Cys187 bond) to 95 nm (absent bond) force-distance curves; parameters: species or system bovine; conditions: for effect on ratio of intact to broken Cys110-Cys187 disulfide bonds (65 nm vs 95 nm rhodopsin): increasing Zn^2+ concentrations, FIG. 4
T2 construct: ROS were purified from fresh bovine retinas as described [33]; from tissue; host or cells: bovine retina, rod outer segment (ROS) disc membranes
T2 sequence (P02699 whole entry): as above
Description: This is due to the fact that the loop not unraveled by SMFS in the Cys110-Cys187 form is unfolded in the 95 nm form.
These force spectra were obtained in substantial absence of zinc, since EDTA was used in the preparation of the ROS disc membranes.
The ratio of the Cys110-Cys187 rhodopsin force-distance curves and the 95 nm rhodopsin force-distance curves was changed in the presence of dithiothreitol and N-ethylmaleimide. The ratio of the 65 nm curves to the 95 nm curves was 1:2 in the presence of dithiothreitol and 7:1 in the presence of N-ethylmaleimide. Dithiothreitol likely disrupts the Cys110-Cys187 disulfide bond, and N-ethylmaleimide alkylates Cys 185. The action of these two compounds likely occurs during the unfolding of rhodopsin, since the residues modified by these reagents are not accessible in the native structure of the protein, as can be judged from the known crystal structure of rhodopsin.
AFM imaging and force spectroscopy were performed as described elsewhere. Disc membranes were adsorbed onto a freshly cleaved mica surface as described previously. For force measurements, the AFM stylus was approached to the Rh surface while applying a constant force of ˜1 nN. After a contact time of ˜0.5-1 s, the stylus was retracted from the membrane surface at a constant velocity of 300 nm/s. All experiments were performed in 150 mM KCl, 25 mM MgCl2, 20 mM Tris, pH 7.8, at room temperature. In experiments where rhodopsin was treated with 1 mM EDTA (Sigma), ZnCl2 (Fisher Scientific), CaCl2, CdCl2, CoCl2, or CuCl2, the buffer was supplemented with the specified amounts of the reagent and the pH adjusted to 7.8. When assayed with 0, 10, 25, 50, 100, 200 and 400 μM ZnCl2, rhodopsin in native ROS disc membranes was diluted in the dilution buffer with the required amount of ZnCl2 and incubated on ice for ˜40 mins—1 h in complete darkness. In the case of other metal ions the sample preparation was carried out in a similar way. In the experiment where 1 mM EDTA was used, 25 mM MgCl2 was not added to the buffer. All dilutions were carried out under dim red light and experiments performed in a completely dark room. Force curves were collected over a period of less than 1 h to prevent bleaching of rhodopsin. The red laser on the AFM promoted minimal bleaching of Rh. ROS membranes solubilized in n-dodecyl-β-D-maltoside were bleached less than 5% after incubation under the AFM laser for 1 hr.
In the first step, the force-distance curves were separated based on their lengths. […] The number of extended amino acid residues at each peak was then calculated using the contour length obtained from the WLC fits. […] To measure the unfolding force and probability of unfolding for each individual structural segment, every event of each curve was analyzed.

rhodopsin [3] = molecular target: T1, rhodopsin; assay: SMFS cleavage experiment: ROS membranes digested with endoproteinase Glu-C, fraction of curves by length; parameters: total number of curves obtained from the uncleaved native Rh sample; from tissue; host or cells: bovine retina ROS membranes, treated with endoproteinase Glu-C (Roche Applied Science); species or system bovine
Description: For cleavage experiments, ROS membranes (2 mg/mL) resuspended in Ringer's buffer (10 mM Hepes, 130 mM NaCl, 3.6 mM KCl, 2.4 mM MgCl2, 1.2 mM CaCl2, 0.02 mM EDTA, pH 7.4) were treated with endoproteinase Glu-C (Roche Applied Science, Indianapolis, Ind., USA) at a substrate to enzyme ratio of 10:1 (w/w). Membranes were digested with the enzyme for 2 h at room temperature and 1.5 h on ice. The reaction was terminated by washing membranes three times with Ringer's buffer containing 5 mM benzamidine (1 mL) and one time with buffer A (1 mL). Membranes were resuspended in buffer A for SMFS studies. For solubilization of rhodopsin (Rh), ROS membranes were resuspended in 20 mM BTP, 150 mM NaCl, 1% n-dodecyl-β-D-maltoside, pH 7.4. The membrane suspension was shaken at room temperature for 10 min and then centrifuged to remove insoluble material at 164,000×g for 30 min. Protein concentration was determined using the Bradford Protein Assay Kit from Bio-Rad Laboratories (Hercules, Calif., USA).
As mentioned above the molecule could detach from the AFM stylus during unfolding. Therefore, for the cleavage experiments with endoproteinase Glu-C it is important to be certain that the <40 nm length force-distance curves are mainly from the N-terminal fragment of the molecule and not from the detached molecule. […]
Target sequence in this assay (P02699 whole entry): as above
Target sequence in this assay (P02699 240-341 limits assumed): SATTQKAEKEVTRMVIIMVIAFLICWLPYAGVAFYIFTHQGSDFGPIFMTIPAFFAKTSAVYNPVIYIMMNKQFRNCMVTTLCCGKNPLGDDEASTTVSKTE

[4] = 200 μM metal ion in buffer, FIG. 3A
[5] = in the presence of N-ethylmaleimide
[6] = dark state rhodopsin, native ROS disc membranes

- effect on the stability of rhodopsin (rhodopsin [1]; 25 mM Mg^2+, FIG. 3B): almost no effect
Molecule: [Cl-].[Cl-].[Mg+2] [magnesium, MgCl2]

Molecule: [Cl][Cd][Cl] [cadmium, CdCl2]
- effect on stability of rhodopsin segments (difference in unfolding force relative to 0 μM Zn^2+) (rhodopsin [1]; [4]): destabilize the majority of the segments
- effect on stability of rhodopsin segments (difference in unfolding force relative to 0 μM Zn^2+) (rhodopsin [1]; 200 μM metal ion in buffer, FIG. 3A, listed as Cd^2+): destabilize or have no effect on the majority of the segments

Molecule: CCN1C(=O)C=CC1=O [N-ethylmaleimide]
- fold increase in the proportion of the 65 nm curves [2, 5]: 3.5 fold
- fraction of total rhodopsin molecules that lack the Cys110-Cys187 bond [2, 5]: ⅛

- effect on ratio of intact to broken Cys110-Cys187 disulfide bonds (65 nm vs 95 nm rhodopsin) [2]: favour the level of 65 nm rhodopsin
- effect on stability of rhodopsin segments (difference in unfolding force relative to 0 μM Zn^2+) (rhodopsin [1]; [4]): stabilizes most segments of the receptor
- zinc concentration above which the stability of rhodopsin increased (rhodopsin [1]; [6]): above 50 μM
- zinc concentration giving the highest stability of dark state rhodopsin (rhodopsin [1]; [6]): 200 µM
Molecule: [Cl-].[Cl-].[Zn+2] [zinc, ZnCl2]
- effect on ratio of intact to broken Cys110-Cys187 disulfide bonds (65 nm vs 95 nm rhodopsin) ([2]; listed as Zn^2+): clearly stabilizes the disulfide bond in a concentration dependent manner
- effect on occurrence probabilities of the unfolding pathways (rhodopsin [1]; zinc 10, 25, 50, 100, 200 and 400 μM, other metal ions 200 μM): leads to a change in the occurrence probabilities of the unfolding pathways

- effect on stability of rhodopsin segments (difference in unfolding force relative to 0 μM Zn^2+) (rhodopsin [1]; [4]): destabilize the majority of the segments
Molecule: [Ca+2].[Cl-].[Cl-] [calcium, CaCl2]
- effect on stability of rhodopsin segments (difference in unfolding force relative to 0 μM Zn^2+) (rhodopsin [1]; 200 μM metal ion in buffer, FIG. 3A, listed as Ca^2+): destabilize or have no effect on the majority of the segments

Molecule: [Cl-].[Cl-].[Co+2] [cobalt, CoCl2]
- effect on stability of rhodopsin segments (difference in unfolding force relative to 0 μM Zn^2+) (rhodopsin [1]): destabilize the majority of the segments; also recorded: destabilize or have no effect on the majority of the segments

Molecule: endoproteinase Glu-C: protease (Roche Applied Science) used to digest ROS membranes in cleavage experiments
- fraction of short curves (<40 nm) of the total curves (rhodopsin [3]; digested sample (untreated sample 23%)): 55%
- fraction of ≈65 nm and ≈95 nm long curves (rhodopsin [3]; enzymatically treated sample): 2%
